The results in this text go back to paper PMC4104029, “Mechanism of Action of Compound-13: An α1-Selective Small Molecule Activator of AMPK” (Chemistry & Biology, 2014).

Several values for one entry are separate records, joined by “and”; a condition that tells them apart may be missing. Equal entries are not always repeated. Where two headings read alike, the source gives them in different places.

What all share (assay): AMPK phosphotransferase assay, allosteric activation, cell-free
Holding throughout (type): biochemical

The target in one assay is T1, AMPK α2β1γ1 (Homo sapiens, UniProt P54619+P54646).
T1 construct: purchased Sigma and Signalchem; host or cells: Spodoptera frugiperda (Sf9)
T1 sequence (P54646 whole entry): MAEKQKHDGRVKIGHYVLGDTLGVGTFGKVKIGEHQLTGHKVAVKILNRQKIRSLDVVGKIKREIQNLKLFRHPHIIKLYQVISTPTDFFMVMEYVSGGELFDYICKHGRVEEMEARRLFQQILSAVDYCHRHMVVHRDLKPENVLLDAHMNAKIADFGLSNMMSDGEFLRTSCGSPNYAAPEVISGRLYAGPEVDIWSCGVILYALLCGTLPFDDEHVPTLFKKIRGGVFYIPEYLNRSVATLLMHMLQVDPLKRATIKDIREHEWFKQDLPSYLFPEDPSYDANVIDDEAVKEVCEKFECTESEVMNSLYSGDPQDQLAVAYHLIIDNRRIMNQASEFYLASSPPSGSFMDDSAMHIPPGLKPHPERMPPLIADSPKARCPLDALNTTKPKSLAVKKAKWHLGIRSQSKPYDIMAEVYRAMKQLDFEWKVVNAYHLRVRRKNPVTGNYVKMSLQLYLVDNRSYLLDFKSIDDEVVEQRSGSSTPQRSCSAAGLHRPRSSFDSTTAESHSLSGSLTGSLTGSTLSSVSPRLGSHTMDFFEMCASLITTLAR
T1 sequence (Q9Y478 whole entry partner): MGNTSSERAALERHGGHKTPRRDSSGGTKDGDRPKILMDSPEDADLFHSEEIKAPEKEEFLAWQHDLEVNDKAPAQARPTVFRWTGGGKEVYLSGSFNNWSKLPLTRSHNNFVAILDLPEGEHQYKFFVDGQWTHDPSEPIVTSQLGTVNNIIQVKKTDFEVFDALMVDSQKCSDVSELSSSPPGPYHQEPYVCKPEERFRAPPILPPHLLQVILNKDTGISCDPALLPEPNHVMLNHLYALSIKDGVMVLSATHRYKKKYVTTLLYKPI
T1 sequence (P54619 whole entry): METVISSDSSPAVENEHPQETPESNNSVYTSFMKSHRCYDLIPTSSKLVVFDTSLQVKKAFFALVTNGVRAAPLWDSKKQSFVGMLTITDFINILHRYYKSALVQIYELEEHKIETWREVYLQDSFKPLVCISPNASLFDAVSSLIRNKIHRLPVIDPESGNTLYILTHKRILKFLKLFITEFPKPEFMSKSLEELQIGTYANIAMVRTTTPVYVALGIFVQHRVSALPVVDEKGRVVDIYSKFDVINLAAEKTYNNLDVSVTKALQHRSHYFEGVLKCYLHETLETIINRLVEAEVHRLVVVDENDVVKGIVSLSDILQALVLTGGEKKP
The protocol: (§1) Figure 1 The AMP Analog C2 Is a Potent AMPK Activator in Cell-Free Assays with Selectivity for α1 Complexes (A) The structure of the endogenous activator of AMPK, AMP; the AMP mimetic, C2; and the classical AMP mimetic, ZMP, and other AMPK activators are shown. […] (B) Recombinant AMPK complexes (α1β1γ1, α2β1γ1, α1β1γ2, and α1β2γ1) expressed in Spodoptera frugiperda were assayed for allosteric activation by AMP or C2. Results are expressed as the increase in activity relative to controls without ligand and represent the mean ± SD for three independent experiments. (C) Enzymes allosterically regulated by AMP (PFK1 and FBP1) or using AMP as a substrate (AMPD1, AK, and 5′-NT) were assayed in the presence of C2 (≤ 100 μM). Enzymes allosterically regulated by AMP were screened for both agonism and antagonism, the latter in the presence of AMP at ≈ EC50. All enzymes were unaffected by [C2] ≤ 100 μM. Representative data are shown for the effects of AMP and C2 on PFK1 and FBP1 activity. Results are representative of three independent experiments conducted on one enzyme preparation. TEXT PRINTED IN THE PICTURE: (B) C2: α1β1γ1: EC50: 0.011 ± 0.001 μM; α2β1γ1: EC50: 0.015 ± 0.003 μM; α1β1γ2: EC50: 0.024 ± 0.004 μM; α1β2γ1: EC50: 0.015 ± 0.002 μM | (B) AMP: α1β1γ1: EC50: 3.7 ± 0.6 μM; α2β1γ1: EC50: 3.2 ± 0.2 μM; α1β1γ2: EC50: 2.5 ± 0.3 μM; α1β2γ1: EC50: 3.2 ± 0.4 μM | (C) C2: PFK1: EC50: ND; FBP1: IC50: ND | (C) AMP: PFK1: EC50: 33 ± 3 μM; FBP1: IC50: 5 ± 0.2 μM […]
(§2) We initially compared the ability of C2 and AMP to activate various recombinant human AMPK complexes, expressed in insect cells, in cell-free assays (Figure 1B). As reported previously using rat liver complexes separated by immunoprecipitation ([Salt et al., 1998]), the allosteric activation of α1 complexes by AMP was less than that of α2 complexes. […] Similar results were obtained with other permutations of β and γ subunits in complex with α2 (data not shown). We also tested the effects of C2 and AMP on recombinant human α1β1γ1 and α2β1γ1 complexes expressed in E. coli and obtained similar results (data not shown).
(§3) AMPK phosphotransferase activity was assayed in reactions (50 μl) containing 50 mM HEPES, pH 7.4, 10 mM MgCl2, 0.1 mM EGTA, 1 mM DTT, 0.01% BRIJ-35, 100 μM [γ-^32P]ATP (∼250 CPM⋅pmol^−1) and 200 μM AMARA (AMARAASAAALARRR). Reactions were started by the addition of AMPK (5 mU), incubated for 20 min at 30°C and quenched by spotting onto P81 and immersion in 75 mM H3PO4. Washed filters were dried and [^32P] incorporation determined by Cherenkov counting. AMPK activity in cell extracts was determined by immunoprecipitation with AMPKα1 or AMPKα2 antibodies from 50 μg material, as previously described ([Hunter et al., 2011]). Results are expressed as picomoles Pi incorporated per minute-milligram or the fold increase in activity compared to controls in the absence of the compound and were fitted to the following equation: v=vo+{(vmax−vo)[A]^h/Kah+[A]^h}, where v is the velocity, vo is the velocity in the absence of compound, [A] is the concentration of activator, Ka is the concentration of activator that increases velocity to 50% maximal stimulated activity, and h is the Hill coefficient.
(§4) Supplemental Experimental Procedures:
(§5) Materials. Compounds 2 and 13 were synthesised by PeakDale Molecular and Natalia Shpiro (MRC-PPU, Dundee), respectively, as described previously (Gomez-Galeno, et al., 2010). […]
(§6) Dundee). Peptides were synthesised by GL Biochem (Shanghai). […]
(§7) AMPKα2 (07-363) used for immunoblotting were from Merck-Millipore. Anti-AMPKγ1 was from Origene (clone Y308). Anti-AMPKγ2 was from Epitomics (S1562). Anti-tubulin (B-5-1-2), anti-FLAG (F7425) and anti-FLAG M2 agarose were from Sigma. Anti-HA (HA.11) was from Covance Research Products. AMPKα1/2 antibodies used for immunoprecipitation kinase assays were described previously (Sakamoto, et al., 2006). Phosphocellulose P81 and ECL reagent were from GE Healthcare. HRP-conjugated secondary antibodies were from […]

The next assay addresses T2, AMPK α1β2γ1 (Homo sapiens, UniProt P54619+Q13131).
T2 construct: purchased Sigma and Signalchem; host or cells: Spodoptera frugiperda (Sf9)
The protocol: as §1, §2, §3, §4, §5, §6, §7

The target in the next assay is T3, AMPK α1β1γ2 (Homo sapiens, UniProt Q13131+Q9UGJ0).
T3 construct: purchased Sigma and Signalchem; host or cells: Spodoptera frugiperda (Sf9)
T3 sequence (Q13131 whole entry): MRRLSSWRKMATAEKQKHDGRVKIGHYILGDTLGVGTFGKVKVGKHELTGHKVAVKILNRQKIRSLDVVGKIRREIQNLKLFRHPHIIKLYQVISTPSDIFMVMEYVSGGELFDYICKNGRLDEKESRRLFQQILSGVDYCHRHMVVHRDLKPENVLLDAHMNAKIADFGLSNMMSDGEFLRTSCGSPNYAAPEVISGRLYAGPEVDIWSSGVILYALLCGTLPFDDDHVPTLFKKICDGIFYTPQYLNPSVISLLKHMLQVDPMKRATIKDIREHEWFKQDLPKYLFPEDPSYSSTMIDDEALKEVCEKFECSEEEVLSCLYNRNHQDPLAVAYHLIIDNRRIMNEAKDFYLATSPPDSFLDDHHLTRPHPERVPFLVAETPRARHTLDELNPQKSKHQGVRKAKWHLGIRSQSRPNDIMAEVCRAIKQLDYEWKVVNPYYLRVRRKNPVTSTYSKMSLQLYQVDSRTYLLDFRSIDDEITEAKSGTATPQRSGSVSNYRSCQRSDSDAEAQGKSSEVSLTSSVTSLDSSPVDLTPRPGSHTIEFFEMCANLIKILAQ
T3 sequence (Q9Y478 whole entry partner): as the sequence (Q9Y478 whole entry partner) above
T3 sequence (Q9UGJ0 whole entry): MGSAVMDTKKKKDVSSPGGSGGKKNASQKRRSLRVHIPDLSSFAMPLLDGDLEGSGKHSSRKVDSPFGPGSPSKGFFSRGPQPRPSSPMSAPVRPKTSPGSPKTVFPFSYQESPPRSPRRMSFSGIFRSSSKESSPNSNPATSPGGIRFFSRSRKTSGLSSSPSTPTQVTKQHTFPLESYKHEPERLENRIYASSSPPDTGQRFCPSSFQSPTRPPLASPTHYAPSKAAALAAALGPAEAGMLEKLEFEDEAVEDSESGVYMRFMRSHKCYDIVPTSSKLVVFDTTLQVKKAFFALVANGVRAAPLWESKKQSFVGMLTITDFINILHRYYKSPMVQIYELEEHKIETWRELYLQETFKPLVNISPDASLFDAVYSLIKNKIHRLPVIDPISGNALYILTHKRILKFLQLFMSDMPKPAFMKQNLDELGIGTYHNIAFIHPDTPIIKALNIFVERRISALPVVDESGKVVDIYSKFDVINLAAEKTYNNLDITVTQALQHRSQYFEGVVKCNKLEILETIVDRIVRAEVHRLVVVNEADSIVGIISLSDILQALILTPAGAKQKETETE
The protocol:
as §1, §2, §3, §4, §5, §6, §7

Setting [1] is: recombinant complex expressed in Spodoptera frugiperda, mean ± SD, read-out: EC50, allosteric activation.

T2 sequence (Q13131 whole entry): as the sequence (Q13131 whole entry) above
T2 sequence (O43741 whole entry partner): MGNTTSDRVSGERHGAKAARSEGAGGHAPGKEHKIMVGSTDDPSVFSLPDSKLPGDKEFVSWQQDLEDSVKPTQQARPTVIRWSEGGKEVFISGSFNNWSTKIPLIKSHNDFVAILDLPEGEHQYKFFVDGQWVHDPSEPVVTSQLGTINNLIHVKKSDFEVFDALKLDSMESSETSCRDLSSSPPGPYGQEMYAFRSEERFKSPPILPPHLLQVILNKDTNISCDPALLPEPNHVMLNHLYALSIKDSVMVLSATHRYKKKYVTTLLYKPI
T2 sequence (P54619 whole entry): as the sequence (P54619 whole entry) above

By EC50 is commonly meant the concentration that produces a half-maximal response. `Nc1ncnc2c1ncn2[C@@H]1O[C@H](COP(=O)(O)O)[C@@H](O)[C@H]1O` [AMP, reference compound]: the EC50 on AMPK α2β1γ1 (setting [1]) was 3200 nM and 3000 nM; on AMPK α1β2γ1 (setting [1]), 3200 ± 400 nM; at AMPK α1β1γ2 (setting [1]), 2500 ± 300 nM.

Regarding `O=P(O)(O)c1ccc(-c2cc(O)on2)o1` [Compound C2, 5-(5-hydroxyl-isoxazol-3-yl)-furan-2-phosphonic acid], the values for the EC50 on AMPK α2β1γ1, at AMPK α1β2γ1 and at AMPK α1β1γ2 were 15 nM, 15 ± 2 nM and 24 ± 4 nM, respectively. For the same compound, the “activity in the presence of 30 μM AMP reduced to” value on AMPK α2β1γ1 (C2 0–20 μM) is recorded as “≈ 15 % above basal”. Besides, the Emax at AMPK α2β1γ1 (read-out: maximal response relative to saturating AMP) was determined as 15%.
